Laboratory results reported in US9326988B2, “Treatment and/or prevention of parkinson's disease dementia with ceftriaxone” (CHUNG SHAN MEDICAL UNIVERSITY, priority 2012, dated 2016).

Tested on: normal rats
Test: Object recognition test in sham-operated rats
Format: in vivo, male Wistar rats
Conditions: determined 14th day (FIG. 4)
Protocol: The rats in the sham-operated groups were generally subjected to the same surgical procedures for the rats in the pathological control group, the preventive groups, and the treatment groups, except that an equal volume of saline was infused bilaterally into the SNc of the mesencephalon of rats in the shame-operated groups.
5 days before the MPTP-HCl injection, ceftriaxone (Sigma) was administered to the rats in the preventive groups 1,2 via intraperitoneal injection respectively at a daily dose of 100 mg/kg and at a daily dose of 200 mg/kg until the end of the 14th day after the MPTP-HCl injection. After the MPTP-HCl injection, ceftriaxone was administered to the rats in the treatment group 1 and the sham-operated groups 2,3 via intraperitoneal injection respectively at a daily dose of 200 mg/kg, at a daily dose of 100 mg/kg, and at a daily dose of 200 mg/kg, and saline was administered to the rats in the pathological control group and the sham-operated group 1 via intraperitoneal injection at a daily dose of 1 mL/kg. […]
The object recognition test is described as follows. […] By virtue of the video camera, the time spent by the respective rat exploring an object (i.e. the object A1, A2, A3, or B) during a trial (i.e. the first, second, third, or fourth trial) was measured. […]

CO/N=C(\C(=O)N[C@@H]1C(=O)N2C(C(=O)O)=C(CSc3nc(=O)c(=O)[nH]n3C)CS[C@H]12)c1csc(N)n1 [ceftriaxone, Ceftriaxone]
percentage of exploration time spent on object B in the fourth trial versus object A3 in the third trial (sham-operated group 2: 100 mg/kg daily i.p.): there is statistical significance
percentage of exploration time spent on object B in the fourth trial versus object A3 in the third trial (sham-operated group 3: 200 mg/kg daily i.p.): there is statistical significance
